How the values were obtained:
[1] = test system: ATMs in perigonadal adipose tissue; assay: CL316,243 treatment of lean mice: ATM content in perigonadal adipose tissue; format: in vivo, C57BL/6J mice
Protocol: Ten 8-week-old C57BL/6J mice fed the standard pellet diet (see above) were injected intraperitoneally with 1 mg/kg of CL316,243 or saline twice (4 hours between each injection). Mice were sacrificed 14 hours after the second injection. Perigonadal adipose tissue was excised and samples were stored as described above.
Adipose tissue samples were fixed for 48 hours at room temperature in zinc-formalin fixative (Anatech Ltd.), incubated in 70% ethanol for 24 hours, and subsequently embedded in paraffin. […] For each individual adipose tissue depot, 5-10 different high-power fields from each of 3 different sections were analyzed. The total number of nuclei and the number of nuclei of F4/80-expressing cells were counted for each field. The fraction of F4/80-expressing cells for each sample was calculated as the sum of the number of nuclei of F4/80-expressing cells divided by the total number of nuclei in sections of a sample. Cross-sectional area was determined for each adipocyte in each field using image analysis software Image-Pro Plus (Media Cybernetics Inc.). For each mouse, 800-1000 adipocytes were counted. Adipocyte number was calculated from fat pad weight and adipocyte volume (48). […] For each individual adipose tissue depot, 10 different high-power fields from each of 3 different sections were analyzed. […]

[2] = test system: stromal vascular cells (SVCs); assay: Co-culture of SVCs with adipose tissue with or without isoproterenol; format: cell-based, C57BL/6J mice
Protocol: RNA was isolated from SVCs using the QIAGEN RNeasy Minikit (QIAGEN) and used as template for cDNA synthesis using Superscript III reverse transcriptase (Invitrogen) and random hexamer primers. Quantitative RT-PCR assays were carried out using DNA Engine Opticon 2 system instruments (Bio-Rad) and PCR SYBR Green I QuantiTect Master Mix (QIAGEN). The mRNA expression of all genes reported is normalized to the cyclophilin B (Ppib) gene expression. Every reaction was performed in duplicate, and the data were analyzed with the 2-DDCT method (49). To isolate SVCs, perigonadal adipose tissue was isolated from high-fat diet-induced obese C57BL/6J male mice immediately after CO2 asphyxiation. Tissues were handled using sterile techniques and minced into fine (<10 mg) pieces. For SVC isolation, minced samples were placed in DMEM (Invitrogen) supplemented with 10 mg/ml BSA (Sigma-Aldrich). An LPS-depleted collagenase cocktail (Liberase 3; Roche Applied Science) at a concentration of 0.03 mg/ml was added to the tissue suspension, and the samples were incubated at 37° C. on an orbital shaker (200 g) for 45 minutes. Once digestion was complete, samples were passed through a sterile 250-mm nylon mesh (Sefar America Inc.). The suspension was centrifuged at 500 g for 5 minutes. The pelleted cells were collected as SVCS. The SVCS were resuspended in erythrocyte lysis buffer (BD Biosciences) and incubated at room temperature for 1 minute. SVCS were plated at a concentration of 650,000 cells/well on cell culture inserts with 1-mm pore size (BD). Each insert was placed in a well of a 12-well tissue culture plate (BD) containing 100 mg of finely minced adipose tissue. To isolate small intact pieces of adipose tissue for culture, perigonadal adipose tissue was remove from high-fat-fed obese C57BL/6J mice and minced to approximately 10-mg size pieces. SVCS were cocultured with adipose tissue pieces for 24 hours in DMEM containing 10% FBS, 1% penicillin, and 2% fatty acid-free BSA. Isoproterenol (Sigma-Aldrich) was added in selected wells at a concentration of 10 mmoles/1. The stromal vascular fraction was collected for gene expression or oil red 0 staining after 24 hours. SVCS were air-dried and fixed with zinc-formalin fixative (see above) for 10 minutes and stained oil red O as previously described (50).

[3] = test system: bone marrow-derived macrophages (BMDMs); assay: Macrophage migration assay with explant-conditioned media; format: cell-based, C57BL/6J mice; settings: explant-conditioned medium, isoproterenol-treated explants; comparable to MCP-1/CCL2 (50 ng/ml)
From the text: Murine BMDMs were differentiated in vitro from bone marrow precursor cells. Briefly, bone marrow cells were flushed from femurs and tibias of 9-week-old C57BL/6J mice, washed in DMEM (Invitrogen), and grown for 7 days in Petri dishes containing DMEM with 10% FBS, 20% L929 cell-conditioned media, 5% horse serum, 1% glutamine, and 1% sodium pyruvate. On the seventh day, media were replaced with DMEM containing 10% FBS, 10% L929 cell-conditioned media, 5% horse serum, 1% glutamine, and 1% sodium pyruvate; macrophages were grown for 3 more days. Differentiation was confirmed by FACS analysis. BMDM migration was evaluated using the QCM chemotaxis […] 96-well cell migration assay (Millipore) according to the manufacturer's instructions.
(§1) Explant-conditioned media, plain media, or media containing recombinant MCP-1 (50 ng/ml) (PeproTech) were added into the lower chamber. To obtain explant-conditioned media, explants were isolated from lean 10-week-old C57BL/6J mice that were ad libitum fed or fasted for 24 hours. […] Explant FFA content was evaluated using the HR NEFA series (Wako Diagnostics). […] At the end of the incubation, cells were detected by a green fluorescent dye (CyQUANT dye) included in the assay. Fluorescence intensity was measured with the Infinite 500 (Tecan). Cell numbers were determined based on fluorescence readings and a standard curve.

[4] = test system: perigonadal adipose tissue explants; assay: Lipolysis (FFA release) of perigonadal adipose tissue explants with isoproterenol; format: cell-based, C57BL/6J mice; set-up: dose or concentration left out as unconfirmed; settings: explants from lean ad libitum-fed mice
Protocol: Perigonadal fat pads were surgically removed from high-fat-fed C57BL/6J mice (n=5/group), which were either ad libitum fed or were undergoing caloric restriction. Subsequently, they were washed several times with PBS. Tissue pieces (−100 mg total weight) were incubated in DMEM (Invitrogen) containing 2% fatty acid-free BSA (Sigma-Aldrich) at 37° C. Aliquots were collected after 120 minutes and investigated for FFA and glycerol content. FFA and glycerol were measured using the HR NEFA series (Wako Diagnostics) and the free glycerol determination kit (Sigma-Aldrich), respectively. We measured adipocyte numbers in parallel samples from weight- and fat-matched ad libitum-fed and calorically restricted mice.
as §1

## C[C@H](Cc1ccc2c(c1)OC(C(=O)[O-])(C(=O)[O-])O2)NC[C@H](O)c1cccc(Cl)c1.[Na+].[Na+] [CL316,243]
[1]; lean C57BL/6J mice, 1 mg/kg intraperitoneally twice 4 hours apart, tissue 14 hours after final injection, vs control-treated mice
  increase of ATM content in perigonadal adipose tissue: more than 5 fold
[1]; lean mice, CL316,243 vs vehicle, perigonadal adipose tissue
  inflammatory phenotype of adipose tissue (expression of inflammatory markers): do not increase the inflammatory phenotype of adipose tissue

## CC(C)NCC(O)c1ccc(O)c(O)c1 (stereo not shown) [isoproterenol]
[2]; SVCs cultured in the absence of adipose tissue, 24 hours
  SVC gene expression or lipid accumulation: no effect
[2]; coculture with adipose tissue plus isoproterenol
  lipid accumulation within SVCs (oil red O): accumulation of lipid within SVCS
[2]; coculture with adipose tissue plus isoproterenol stimulation
  Ccr2 gene expression in the SVC fraction: induced Ccr2 gene expression
[2]; in the presence of adipose tissue
  program of adipocyte differentiation in SVCs (adiponectin, leptin, Pparg expression): no activation of a program of adipocyte differentiation
[2]; in the presence of adipose tissue, 24 hours
  Adfp gene expression in SVCs: induced the expression of the gene Adfp
[2]; in the presence of adipose tissue, P=0.09
  Cd36 expression in SVCs: increased
[3]
  chemotactic activity of adipose tissue toward BMDMs: proportional increase in the chemotactic activity
[4]
  lipolysis as release of FFA from explants: increased lipolysis

From patent US20130315981A1, “METHOD FOR INDUCING FAT LOSS IN MAMMALS” (The Trustees of Columbia University in the City of New York, priority 2010, published 2013)
